Assay results published in patent US20100324079A1, “Medicament for prophylaxis and treatment of Alzheimer disease” (priority 2006, published 2010).
Entries after “also recorded” stand apart in the source; their conditions may differ. Structures can show the parent of a compound that is named as a salt. Peptide text beside a SMILES is read from it. * marks the point of attachment. Cbz = O=C(OCc1ccccc1)*

Legend:
3×Tg mouse [1] = assay: Preventive effect to onset of AD, Morris water maze test in homozygous 3×Tg mice; type: in vivo; conditions: weekly 5 mg/kg from 3 months old up till 6 months old, hydrochloride
Method: For investigating whether APO administration may prevent onset of AD, the effect of weekly administration of 5 mg/kg of APO before onset was studied. The recognition function and the pathological change in 3×Tg mice may widely vary from individual to individual and thus still much more data would be necessary for obtaining a definite conclusion.

SH-SY5Y cells = assay: Cell death induced by hydrogen peroxide in SH-SY5Y cells (cell survival); type: cell-based; conditions: for rate of cell survival: hydrogen peroxide
Method: A cell death inhibitory activity of apomorphine hydrochloride to cell death induced by hydrogen peroxide was studied. Hydrogen peroxide treatment was performed by adding an appropriate amount (0 mM, 1 mM, and 3 mM) of hydrogen peroxide to normal culture medium for SH-SY5Y cells supplemented with 10% serum and by investigating cell survival after 24 hours. The cells were fixed with methanol/acetone (50%/50%) for 10 minutes so that the conditions of surviving cells could easily be observed and then subjected to immunostaining with an anti-APP C-terminal antibody (Sigma-Aldrich) using Universal Kit (DAKO). As a result, cell death was induced by hydrogen peroxide (FIG. 3, upper panels). Then, the cells were treated with 10 μM APO together with 0 mM, 1 mM, and 3 mM of hydrogen peroxide.
(§1) Further, in order to study p53 level and a rate of cell survival in cell damage induced by hydrogen peroxide, p53 Western blot analysis and survival rate assay using Cell Titer-Blue Assay Kit (Promega) were performed. Hydrogen peroxide treatment was done by adding an appropriate amount (0 mM, 1 mM, and 3 mM) of hydrogen peroxide to normal culture medium for SH-SY5Y cells supplemented with 10% serum as described above. After 24 hours, the increased p53 level by addition of hydrogen peroxide was inhibited by addition of APO (FIG. 4A). A rate of cell survival was also recovered by addition of APO.

[2] = tested on: intracellularly accumulated Aβ42; assay: Degradation of intracellularly accumulated Aβ42 in SH-SY5Y cells (immunoblot); type: cell-based
Excerpt: (§2) In order to investigate a compound that inhibits intracellular aggregation and accumulation of amyloid β proteins based on activation of intracellular proteasome, a system was constructed for assaying an activity to degrade intracellularly accumulated Aβ. Neuroblastoma cells (SH-SY5Y; ATCC) were used as culture cells and Aβ40 was artificially accumulated within the cells. […] If the activity to degrade Aβ40 was high, the activity to degrade Aβ42 was analogously thought to be high. For introducing amyloid β proteins within cells, hypertonicity influx method was used. Briefly, using Influx™ Pinocytic Cell-loading Reagent (Molecular Probe), SH-SY5Y cells (1×10^6 cells) were exposed to Aβ40 (about 200 μg; ANASPEC) with hypertonicity for 10 minutes/hypotonicity for 2 minutes so that Aβ40 peptides may be incorporated into cells via pinocytosis and spread pervasively in cytoplasm. After accumulation of Aβ40 within cells, degradation of Aβ with lapse of time was observed. […] These reagents were added to culture two hours before Aβ40 accumulation to investigate their activity.
(§3) Zero minute and thirty minutes after Aβ40 treatment, cells were collected and subjected to immunoblot. Immunoblot was performed as commonly known in the art wherein soluble proteins were extracted from cells with 2% SDS, run on Tris/Tricine gel SDS-PAGE, transblotted to PVDF membrane (Semi-dry method) and detected with an anti-Aβ antibody (4G8, Signet Pathology Systems). Quantitative evaluation was done by quantitatively evaluating the immune reaction of amyloid β proteins. Quantitative evaluation was performed by taking in the photos with Photoshop and measuring density of bands with NIH Image. […] Thus, it was considered that intracellularly accumulated Aβ40 were degraded by proteasome and that APO may enhance the degrading process.
As described in Example 1(1) and (2), degradation of intracellularly accumulated Aβ was assayed for Aβ42 provided that cells were collected 0 minute and 90 minutes after Aβ42 treatment and subjected to immunoblot.

p53 = p53 Western blot analysis in hydrogen peroxide treated SH-SY5Y cells; type: cell-based; conditions: 0, 1, 3 mM hydrogen peroxide, after 24 hours
Method: as §1

3×Tg mouse [3] = assay: Immunostaining of brain slices of 3×Tg mice (4G8, AT8); type: in vivo
Excerpt: In 3×Tg mouse, it is observed that defects in the recognition function and intracellularly accumulated amyloid β proteins are correlated to each other. For evaluating amyloid β proteins accumulated within neurons, 3×Tg mice used in Example 6 were sacrificed for pathological analysis. Immunostaining was done with an antibody specific to an amyloid β protein and an antibody specific to a phosphorylated tau protein, which is a major component of neurofibrillary tangle in the AD brain. After completion of Morris water maze test after APO injection, the mice were subjected to perfusion fixation with 4% paraformaldehyde. Then, the whole brain was taken out, fixed with 4% paraformaldehyde and was left to stand in 15% sucrose for 48 hours and in 30% sucrose for 48 hours at 4° C. A slice with 20 μm thickness cut from the forehead including the hippocampus was prepared. Immunostaining was performed with 4G8 (Signet Laboratories, 1:1000) for an anti-amyloid β protein antibody and AT8 (Innogenetics, 1:200) for an anti-phosphorylated tau protein antibody using mouse to mouse immunostaining kit (Zymed) for DAB staining.

3×Tg mouse [4] = assay: Morris water maze test in heterozygous 3×Tg mice; type: in vivo
Method: 3×Tg mouse is a model mouse of Alzheimer disease (AD) developed by Oddo and LaFerla et al. at University of California, Irvine. It is a mouse having three potent causes of disease wherein a gene of an amyloid precursor protein (APP) with KM670/671NL mutation, which is a gene causative of Swedish familial AD, and a gene of a tau protein (Tau) with P301L mutation, which is one of genes causative of familial frontotemporal dementia (FTD), are incorporated into a knock-in mouse of presenilin-1 (PS1) gene with M146V mutation causative of familial AD. […] It is also reported that the memory function of 3×Tg mouse is recovered when amyloid β proteins accumulated within neurons are decreased but defects in memory relapse if amyloid β proteins become accumulated (Billings L M et al., Neuron 45: 675-688, 2005). Thus, 3×Tg mouse is a model mouse of disease highly suitable for investigating efficacy of a medicament which targets intracellularly accumulated amyloid β proteins.
For investigating efficacy of apomorphine (APO) hydrochloride administered in vivo, APO was subcutaneously injected to 3×Tg. APO was purchased from Sigma Co. To heterozygous 3×Tg (6 month old; 4 mice in each group) generated from crossbreeding of a normal mouse and a Tg mouse, each 5 mg/kg of saline or APO was subcutaneously injected weekly for 4 weeks. The animals underwent analysis by Morris water maze test to evaluate the capacity of space memory before injection and after completion of four injections.
For quantitatively evaluating the capacity of space memory relating to the memory function of the hippocampus, Morris water maze test was performed. An analytical instrument used was DV-Track Video Tracking System (Muromachi Kikai Co., Ltd.). For Morris water maze, a round-shaped pool with a diameter of 1 m is prepared and a transparent goal stand is set in an arbitrary position of the pool. The animals undergo swimming training repeatedly by starting at an arbitrary position for reaching the goal stand (FIG. 9, left panel). In case that the animals could not reach the goal stand within 60 seconds, the test is discontinued and the animals are put on the goal stand for them to memorize the position. This training is repeated four times a day for three consecutive days and as a consequence the animals come to memorize the position of the goal stand (FIG. 9, right panel). Forty eight hours after completion of learning with time for reaching the goal stand being 15 seconds or less, the animals were let to swim in the pool without the goal stand and three indexes for memory were: time lag (s) in reaching the position where the goal stand was originally placed, a frequency (n) of crossing the position as seeking for the goal stand, and residential time (%) within ¼ block of the position where the goal stand was originally placed (48-hour probe test).

[5] = tested on: primary neurons from mouse fetus; assay: Protective effect in mouse primary neurons (cell survival, beta-tubulin immunostaining); type: cell-based
Method: Primary neurons were taken from the brain of fetal mouse of 15 days old, separated by treatment with 0.03% trypsin and cultured in Neurobasal-A+B27 serum-free medium (Gibco). After stabilization by culture for about a week, the reagents were added and a rate of cell survival was measured.
Further, the above mouse primary neurons were immunostained with an antibody to beta-tubulin, a cytoskeletal protein of the axon and a network of the neurite was observed (FIG. 8).

[6] = tested on: intracellularly accumulated Aβ40; assay: Degradation of intracellularly accumulated Aβ40 in SH-SY5Y cells (immunoblot, confocal microscopy); type: cell-based; conditions: for degradation of intracellularly accumulated Aβ40 after 30 minutes: reagent added 2 hours before Aβ40 accumulation, immunoblot with 4G8
Excerpt: as §2, §3
Aβ40 was incorporated into cells via pinocytosis as in (1) above.

proteasome = assay: Proteasome activity in SH-SY5Y cells (20S Proteasome Assay Kit, Suc-LLVY-AMC); type: cell-based
Method: As described in Example 2(1) and (2), a change in the protease activity in SH-SY5Y cells by addition of APO was studied. Measurement of the protease activity was conducted by calculating a relative specific activity by measuring fluorescence generated from degradation of a specific substrate (Suc-LLVY-AMC) using 20S Proteasome Assay Kit (BostonBiochem). Comparison between two groups was done by Student t-test.

CN1CCc2cccc3c2[C@H]1Cc1ccc(O)c(O)c1-3 [APO, apomorphine hydrochloride]
capacity of memory acquisition in swimming training (time lag in reaching the goal stand) (3×Tg mouse [1]): comparable to Non-Tg mice; also recorded: evidently superior to that of 3×Tg mice with no treatment; also recorded: comparable to non-transgenic mice
cell survival (number of surviving cells and morphological features) (SH-SY5Y cells; 10 μM APO with 0, 1, 3 mM hydrogen peroxide, 24 hours, immunostaining): evident enhancement of cell survival
rate of cell survival (SH-SY5Y cells; 10 μM APO, Cell Titer-Blue, p<0.0001): extremely improved
rate of cell survival (SH-SY5Y cells; 24 hours, Cell Titer-Blue Assay Kit): recovered
degradation of intracellularly accumulated Aβ42 after 90 minutes [2]: degradation after 90 minutes was enhanced
p53 level increased by hydrogen peroxide (p53): inhibited
fall-off of massive neurons (3×Tg mouse [3]; 3×Tg mice at the stage of 6-month, after administration): not observed
intraneuronal accumulation of amyloid β proteins (4G8 immunostaining) (3×Tg mouse [3]; cerebral cortex and hippocampus CA1 region, 3×Tg mice of Example 6, vs saline, hydrochloride): evidently inhibited
intraneuronal accumulation of phosphorylated tau proteins (AT8 immunostaining) (3×Tg mouse [3]; cerebral cortex and hippocampus, 3×Tg mice of Example 6, vs saline, hydrochloride): the accumulation was inhibited
capacity of memory for the goal stand position (loci of swimming), 48-hour probe test (3×Tg mouse [4]; 3×Tg cases (2 mice) in which APO injection was efficacious, hydrochloride): the memory retention of the goal stand position was improved; also recorded: markedly improved
capacity of learning after 3-day consecutive training (time for reaching the goal stand) (3×Tg mouse [4]; heterozygous 3×Tg, 6 month old, 5 mg/kg subcutaneous weekly for 4 weeks, n=4, hydrochloride, 5 mg/kg): a tendency of improvement in the capacity of memory and learning; also recorded: slightly higher capacity of learning after treatment
frequency of crossing the goal stand, 48-hour probe test (3×Tg mouse [4]; heterozygous 3×Tg, 5 mg/kg s.c. weekly for 4 weeks, after vs before injection, p=0.03): increase in frequency of crossing the goal stand
residential time (%) within ¼ block of the goal stand, 48-hour probe test (3×Tg mouse [4]; heterozygous 3×Tg, 5 mg/kg s.c. weekly for 4 weeks, after vs before injection, p=0.04): increase in residential time
time lag in reaching the goal stand, 48-hour probe test (3×Tg mouse [4]; heterozygous 3×Tg, 5 mg/kg s.c. weekly for 4 weeks, after vs before injection, p=0.05): shortening of time lag in reaching the goal stand
network of the neurite (beta-tubulin immunostaining) ([5]; mouse primary neurons): protection and maintenance of the network
apoptosis inhibitory activity for oxidative stress (rate of cell survival) ([5]; primary neurons from fetal mouse of 15 days old): also seen in primary neurons from mouse fetus
concentration at which the effect of APO was at the peak ([5]; primary neurons from mouse fetus, rate of cell survival, thereafter declined): 10 µM
change in intracellular Aβ40 with lapse of time ([6]; 10 μM APO added two hours before): degraded with lapse of time
degradation of intracellularly accumulated Aβ40 after 30 minutes [6]: degradation after 30 minutes was enhanced
degradation of intracellularly accumulated Aβ40 inhibited by MG132, effect of adding APO ([6]; with MG132, 30 minutes, immunoblot): the degradation was recovered
proteasome activity (relative specific activity) (proteasome; APO alone, hydrochloride): enhanced the proteasome activity; also recorded: increased
decreased proteasome activity at addition of oxidative stress (proteasome; oxidative stress plus APO): recovered

Aβ42: amyloid β protein of 42 residues; printed in b62 as the added agent, probably a misprint for APO
degradation of intracellularly accumulated Aβ42 inhibited by MG132, recovery ([2]; with MG132, 90 minutes): the degradation was recovered

CC(C)C[C@@H](C=O)NC(=O)[C@H](CC(C)C)NC(=O)[C@H](CC(C)C)NC(=O)OCc1ccccc1 [MG132] (Cbz-Leu-Leu-Leu-aldehyde)
degradation of intracellularly accumulated Aβ42 after 90 minutes [2]: degradation was inhibited
degradation of intracellularly accumulated Aβ40 after 30 minutes [6]: degradation was inhibited
